Reference: ChEMBL document CHEMBL1914296, “Copper(II) chloride mediated synthesis and DNA photocleavage activity of 1-aryl/heteroaryl-4-substituted-1,2,4-triazolo[4,3-a]quinoxalines” (Eur J Med Chem, 2011)

How the values were obtained:
[1] = Solubility of compound in DMSO; assay type: physicochemical
[2] = tested on: Nucleic Acid; assay: (§1) Induction of bacteriophage supercoiled double stranded phiX174 plasmid DNA cleavage assessed as formation of relaxed open circular form at 40 ug using ethidium bromide staining by agarose gel electrophoresis-based UV transilluminator analysis relative to control; assay type: nucleic-acid assay; design: scale not given: the % may be the effect or the level left; conditions: unidentified phage
[3] = tested on: Nucleic Acid; assay: as §1, with “30” for “40”, “ug followed by UV irradiation for 45 mins” for “ug”; assay type: nucleic-acid assay; design: scale not given: the % may be the effect or the level left; conditions: unidentified phage
[4] = tested on: Nucleic Acid; assay: as §1, with “80” for “40”, “ug followed by UV irradiation for 45 mins” for “ug”; assay type: nucleic-acid assay; design: scale not given: the % may be the effect or the level left; conditions: unidentified phage
[5] = tested on: Nucleic Acid; assay: as §1, with “120” for “40”, “ug followed by UV irradiation for 45 mins” for “ug”; assay type: nucleic-acid assay; design: scale not given: the % may be the effect or the level left; conditions: unidentified phage

Row | solubility [1] | Activity [2] [%] | Activity [3] [%] | Activity [4] [%] | Activity [5] [%] | Compound
1 | soluble |  |  |  |  | Cc1nc2ccccc2n2c(-c3ccccc3[N+](=O)[O-])nnc12
2 | soluble |  |  |  |  | Cc1nc2ccccc2n2c(-c3ccco3)nnc12
3 | soluble | 0 | 26 | 53 | 68 | Cc1nc2ccccc2n2c(-c3cccs3)nnc12
4 | soluble |  |  |  |  | Cc1nc2ccccc2n2c(-c3ccccc3Cl)nnc12
